Assay results published in PMC7618597, “Dual Nurr1/RXR agonism of valerenic acid and synthetic mimetics enables dimer-selective Nurr1 modulation” (ACS medicinal chemistry letters, 2025).

Test system: HEK293T cells
Test: Multiplex toxicity assay
Assay type: cell-based
Conditions: for toxicity at the test concentrations of the gene expression study: 2 (10 μM), 3 (1 μM), multiplex toxicity assay; for concentration at which toxic effects start: HEK293T cells, confluence, metabolic activity, pyknosis, necrosis, n=4
Experimental: page 9: and 20 s of elongation at 68 °C. PCR product specificity was evaluated using a melting curve analysis ranging from 65 to 95 °C. Nurr1 target gene expression was normalized to rGAPDH mRNA expression per sample using the ΔCt-method. The following primers and annealing temperatures were used: rGAPDH (59.4 °[…]); rTH (59.4 °C): 5'-[…]); rFLRT2 (59.0 °C): 5'-[NT]); rSESN3 (62.4 °C): […]); rCRMP4 (58.0 °C): […]); rBDNF (58.0 °C): 5'-[NT]); rBIRC5 (59.4 °C): 5'-[…]); rCCND2 (59.0 °C): [NT]); rXIAP (61.1 °C): […]); rSOD2 (59.4 °C): [NT]). Multiplex toxicity assay. HEK293T cells were grown in DMEM high glucose, supplemented with 10% FCS, sodium pyruvate (1 mM), penicillin (100 U/mL), and streptomycin (100 μg/mL) at 37 °C and 5% CO2. The day before experiment, cells were seeded in 96-well plates (2 × 10^4 cells per well) in culture medium with reduced serum content (0.2%). The next day, medium was changed, maintaining the low serum content and additionally containing 0.1% DMSO with 2 (1 or 10 μM) or 3 ([…]), 0.1% DMSO with bexarotene (100 μM) or flavopiridol (100 μM) as positive controls, or 0.1% DMSO alone as untreated control. Each sample was prepared in 4 biologically independent replicates. After incubation for 24 h, the medium was changed to 90 μL culture medium without phenol red (0.2% FCS) and 10 μL Cell Counting Kit- 8 solution (CCK-8, MedChem Express #HY-[…]), and absorbance was measured after 2 h incubation at 450 nm on a Tecan Spark Cyto (Tecan Group AG) to assess metabolic activity of the cells. Thereafter, Hoechst33342 (10 μM, #ab228551, Abcam Limited, Cambridge, UK) and Live-or-Dye Nuc-Fix Red (0.05×, Biotium, Inc., Fremont, CA, 1691 USA) were added and incubated for 30 min to detect pyknosis and cellular necrosis, respectively. After incubation, a total of 3 fluorescence images per well at 10× magnification was taken to detect Hoechst33342-positive cell nuclei (Ex: 381-400 nm, Em: 414-450 nm) and Live-or- Dyepositive cells (Ex: 543-566 nm, Em: 580-611 nm), respectively, using a Tecan Spark Cyto (Tecan Group AG). Necrotic cells were counte d using CellProfiler (Version 4.2.6). Reference readings for background correction and detection of autofluorescence were taken at the same wavelengths prior to staining. Before drug administration, after the first medium exchange, 24 h after drug administration, and after fluorescence imaging cell confluence was assessed using the Tecan Spark Cyto, to account for changes in cell confluence due to drug administration and cell handling. Pyknosis was defined via a cutoff range describing the significant shift of Hoechst33342-positive signal per nuclear area in bexarotene vs. vehicle treated cells. The mean intensity/area values for each well were further normalized to the […] increment of pyknosis. […]

Q: With `Cc1c2c(n(-c3ccc(CC(=O)O)cc3)c1C)CCC(F)(F)C2` [compound 2] as the compound, how does the “toxicity at the test concentrations of the gene expression study” value read?
A: non-toxic

Q: What about the “concentration at which toxic effects start” value of the same compound?
A: > 30 µM

Q: With `Cc1c(C)n(-c2ccc(CC(=O)O)cc2)c2ccc(F)cc12` [compound 3] as the compound, how does the “toxicity at the test concentrations of the gene expression study” value read?
A: non-toxic

Q: And the “concentration at which toxic effects start” value?
A: 10 µM
